Data from PMC7997579, “Synthetic Lethality in Pancreatic Cancer: Discovery of a New RAD51-BRCA2 Small Molecule Disruptor That Inhibits Homologous Recombination and Synergizes with Olaparib” (Journal of Medicinal Chemistry, 2020).
Like-named read-outs stand apart in the source and are kept apart here.

How the values were obtained:
BxPC3 cells = experiment: Cell viability assay (CellTiter-Glo), association with olaparib; format: cell-based, human
From the text: Our working hypothesis is that compounds disrupting RAD51-BRCA2 interaction should affect HR repair and increase the efficacy of PARPi in treating breast, ovarian, and pancreatic cancer. For its clinical relevance, pancreatic adenocarcinoma was selected as our final model for cell-based experiments, and BxPC3 cells were selected for a straightforward comparison with the previously reported triazole derivatives.[30],[31] BxPC3 is derived from a human adenocarcinoma that expresses fully functional BRCA2.[38] As shown in Table 2 and according to the rationale of our hypothesis, our preliminary screening consisted of verifying the efficacy of compounds in inhibiting cell HR and/or in increasing the antiproliferative effect of olaparib. […] HR activity was assessed by evaluating the recombination rate between two transfected plasmids, using a commercially available assay. […] As for the emissucinic acid-containing compounds (4d, 12d, 18d, 20d–23d, 30d, 31d), one of the reasons for their lower potency in cells might be the general poor permeability, likely related to the ionizable acid moiety. […] We then characterized 35d in additional biophysical and cell-based experiments.
(§1) Cell viability was assessed with the CellTiter-Glo luminescent cell viability assay from Promega. For this experiment, 1 × 10^4 cells in 200 μL of culture medium were seeded into each well of a 96-multiwell white body plate and allowed to adhere overnight. After 72 h incubation in the presence of olaparib (10 μM) and the RAD51-BRCA2 disruptors alone or in combination, the plate was allowed to equilibrate at room temperature for 30 min and the CellTiter-Glo reactive was directly added to each well. The plate was kept on a shaker for 10 min to induce cell lysis, and its luminescence was measured with a Fluoroskan Ascent FL reader (Labsystems).

RAD51 in BxPC-3 nuclei = experiment: Immunofluorescence of RAD51 nuclear localization after cisplatin; format: cell-based, human; details: BxPC-3, 50 μM cisplatin in association with 20 μM 35d
Protocol: Immunofluorescence was used for studying RAD51 nuclear translocation and for evaluating DNA damage through the detection of γH2AX nuclear foci. To visualize RAD51 in cell nuclei, BxPC-3 cells were seeded on glass coverslips placed in a 6-well culture plate (2 × 10^5 cells/well) and allowed to adhere overnight. Cultures were then preincubated with 20 μM 35d for 1 h and subsequently exposed to 50 μM cisplatin for an additional 1.5 h. Medium was removed, and cells were maintained in the presence of 20 μM 35d for 4 h. After this time, cultures growing on coverslips were fixed in PBS containing 1% formalin for 20 min, permeabilized in 70% ethanol, air-dried, and washed twice with PBS. Samples were incubated in 10% bovine serum albumin (BSA) in PBS for 30 min at 37 °C and subsequently exposed to an anti-RAD51 mouse monoclonal antibody (Santa Cruz Biotechnology, 1:1000 in 5% BSA/PBS) overnight at 4 °C. After washing, coverslips were incubated with an anti-mouse FITC-conjugated secondary antibody (1:1000 in 1% BSA/PBS) for 1 h at 37 °C, washed, air-dried, and mounted with a solution of DAPI (2 μg/mL) and DABCO.

BRC4–RAD51 interaction = biological target: T1, BRC4–RAD51 interaction (Homo sapiens, UniProt Q06609); experiment: Competitive biochemical ELISA assay (biotinylated BRC4 peptide vs RAD51); format: binding
T1 construct: purchased Creative Biomart (RAD51); Life Technologies (BRC4 peptide)
T1 sequence (Q06609 1-339): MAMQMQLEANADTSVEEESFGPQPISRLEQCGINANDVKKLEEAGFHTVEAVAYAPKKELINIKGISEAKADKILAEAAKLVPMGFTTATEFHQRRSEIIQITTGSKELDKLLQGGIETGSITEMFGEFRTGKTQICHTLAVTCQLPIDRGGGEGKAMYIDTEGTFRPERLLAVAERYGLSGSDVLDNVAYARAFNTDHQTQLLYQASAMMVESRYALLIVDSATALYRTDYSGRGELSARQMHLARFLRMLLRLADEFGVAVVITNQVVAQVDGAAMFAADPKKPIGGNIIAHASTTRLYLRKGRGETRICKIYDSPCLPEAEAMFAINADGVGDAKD
How it was run: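 Plates coated with N-terminally biotinylated BRC4 peptide were blocked (1% BSA/PBST) and hybridised overnight with human RAD51. Compounds were tested from 0.01 to 100 μM in triplicate (1% DMSO); bound RAD51 was detected by anti-RAD51 and HRP-secondary antibodies with TMB colorimetric read-out.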

HK-2 = experiment: Cell viability assay (antiproliferative effect), association with olaparib; format: cell-based, human; details: HK-2, 72 h, 10 μM olaparib; two-way ANOVA
Protocol: (§2) Finally, the antiproliferative effect of the 35d/olaparib combination was also studied on the HR-defective Capan-1 culture and on a non-neoplastic cell line derived from human kidney (HK-2). Moreover, to evaluate the antineoplastic potency of the 35d/olaparib association, we also calculated the combination index (CI) of the two compounds, using the procedure previously described[30],[31] (Figure 9).
as §1

Capan-1 cells = experiment: as above; format: cell-based, human
Protocol: as §2, §1

CCC(=O)N1N=C(c2c(-c3ccccc3)c3cc(Cl)ccc3[nH]c2=O)CC1c1ccc(OC)cc1 (stereo not drawn) [Compound 35d, 6-Chloro-3-(5-(4-methoxyphenyl)-1-propionyl-4,5-dihydro-1H-pyrazol-3-yl)-4-phenylquinolin-2(1H)-one]
combination index (CI) with olaparib (BxPC3 cells; BxPC3, 10 μM 35d + 10 μM olaparib): ~1
olaparib association (BxPC3 cells; BxPC3, at 15 μM): olaparib association = present at 15 μM
combination index (CI) with olaparib (BxPC3 cells; BxPC-3, 20 μM 35d + 10 μM olaparib, CI < 0.8 = synergism): < 0.8
RAD51 nuclear foci in cisplatin-treated cells (RAD51 in BxPC-3 nuclei): significantly reduced
EC50 (BRC4–RAD51 interaction; Table 2, compounds selected for cell-based study, read-out: EC50 ELISA): 19 ± 1 µM
EC50 (BRC4–RAD51 interaction; competition with BRC4 for RAD51, triplicate, ± standard deviation, NA = not active, racemic mixtures unless enantiomer named, read-out: EC50 (μM) on ELISA assay): 19 ± 1 µM
antiproliferative effect of 35d/olaparib vs olaparib (HK-2): no dose of 35d appeared to significantly increase
antiproliferative effect of 35d/olaparib (Capan-1 cells; Capan-1, 72 h, 10 μM olaparib, two-way ANOVA): significantly increased antiproliferative effects
combination index (CI) with olaparib (Capan-1 cells; Capan-1, all tested doses of 35d + 10 μM olaparib): ~1
